Reference: US10274483B2, “Fluorescence method for sensing chlorinated disaccharides” (THE REGENTS OF THE UNIVERSITY OF CALIFORNIA, priority 2014, dated 2019)

Experiments:
Format in all cases: binding
[1] = oBBV-HPTS two component fluorescence assay, lactulose
Description: (§1) Boronic acids form covalent bonds with the cis-1, 2-hydroxyl groups that are commonly found in saccharides. Based on this property, a two-component sensing system is developed, comprising a fluorescent dye that serves as the indicator unit and a boronic acid-appended viologen that serves a dual function as fluorescence quencher and saccharide receptor. Dye and viologen form a non-fluorescent ground state complex. Binding to a diol weakens the complex. Subsequent dissociation from the fluorescent dye results in an increase in fluorescence dependent on diol concentration.
(§2) Urine has been analyzed for the permeability markers sucrose (stomach), lactulose and mannitol (small intestine) and sucralose (colon). The viologen oBBV was used with the fluorophore HPTS (Exc. 420 or 485 nm, Em 535 nm). Fluorescence was measured with a benchtop plate reader. HPTS is normally read at 420/535 nm, but performs well at 485/535 nm, matching FITC filter sets normally found in clinical labs. […] Lower limit of quantification (LLOQ) and dynamic range are suitable for typical urine samples.

[2] = oBBV-HPTS two component fluorescence assay, mannitol
Description: as §1, §2

[3] = oBBV-HPTS two component fluorescence assay, sucrose
Experimental: as §2
(§3) Developing a degradation pathway of sucralose into a saccharide that consists of the hydroxyl groups is needed for boronic acid recognition, which allows for the molecular recognition of sucralose. Sucralose contains halogenated carbons, which are easily modified via a hydroxyl anion or radical to de-chlorinate sucralose to form a detectable saccharide. Based on literature precedence, sucralose is modified through advanced oxidation photolysis to generate a fructose sugar alcohol derivative of sucrose (Ref 38). […] This has been accomplished by generating hydroxyl anion and radicals via the Fenton chemical reaction (Ref 39) in the presence of sucralose, and upon reaction completion, the modified sucralose solution was tested against the oBBV-HPTS system. Using the disclosed two component system, it is confirmed that sucralose is modified.

[4] = oBBV-HPTS two component fluorescence assay, sucralose
Experimental: as §2, §3

[5] = oBBV-HPTS two component fluorescence assay, Fenton-modified sucralose; settings: sucralose after Fenton reaction, 1 hr; sodium phosphate and HEPES buffer, 0.01% Triton-X100, pH 7.4 (FIG. 4)
Experimental: FIG. 4 is a graph showing the results of a proof of concept experiment to measure modified sucralose after 1 hr of reaction time. This study was performed with ortho bis boronic acid viologen (oBBV) in sodium phosphate and HEPES buffer 0.1M containing 0.01% Triton-X100, pH 7.4. The fluorescence intensity is the normalized intensity where F=fluorescence intensity after saccharide addition and Fo=fluorescence intensity of the quenched reporter dye.
Developing a degradation pathway of sucralose into a saccharide that consists of the hydroxyl groups is needed for boronic acid recognition, which allows for the molecular recognition of sucralose. […]
This has been accomplished by generating hydroxyl anion and radicals via the Fenton chemical reaction (Ref 39) in the presence of sucralose, and upon reaction completion, the modified sucralose solution was tested against the oBBV-HPTS system. Using our two component system, we have confirmed that sucralose can be modified and measured by adding increasing amounts of this modified saccharide, a significant fluorescence signal was obtained.
A solution of sucralose (20 mM) in the presence of ferrous iron (II) sulfate and hydrogen peroxide was allowed to stir for 1 hour and dilutions were made to determine if a fluorescence signal can be obtained. […]

[6] = fluorophore HPTS, urine, Exc. 420 or 485 nm, Em 535 nm (FIG. 3)

OB(O)c1ccccc1C[n+]1ccc(-c2cc[n+](Cc3ccccc3B(O)O)cc2)cc1.[Br-].[Br-] [oBBV, 4,4′-N,N′-bis-(benzyl-2-boronic acid)-dipyridinium dibromide]
sensitivity to lactulose [1, 6]: greatest preferential sensitivity | de-quenching of HPTS fluorescence in the presence of lactulose ([1]; urine (FIG. 3)): selectively de-quenched | sensitivity to mannitol [2, 6]: good sensitivity | de-quenching of HPTS fluorescence in the presence of mannitol ([2]; urine (FIG. 3)): selectively de-quenched | fluorescence signal with sucrose ([3]; tested in parallel with modified sucralose (FIG. 4)): no obtainable signal | de-quenching of HPTS fluorescence in the presence of sucrose ([3]; urine (FIG. 3)): not | fluorescence signal with sucralose ([4]; unmodified, tested in parallel with modified sucralose (FIG. 4)): no obtainable signal | de-quenching of HPTS fluorescence in the presence of sucralose ([4]; urine (FIG. 3)): not | fluorescence signal on adding increasing amounts of modified sucralose [5]: increase in fluorescence signal
